We go through 42 substances from US20220213138A1, “CYCLIC COMPOUNDS AND METHODS OF MAKING AND USING” (UNIVERSITY OF HONG KONG, priority 2019, published 2022).

Like-named read-outs stand apart in the source and are kept apart here. Positions of bridges follow the written chain, without caps; N, C: chain ends. No end group written: not given here.

For data set [1] the following is noted: crosslinker bond.
Another data set concerns Caco2 cells. Description: Fluorescence confocal imaging analysis of Caco2 cells. As to conditions: 1 μL 10 mM peptide in 1 mL DMEM with 10% FBS, 2 hours at 37° C. Type of data set: cell-based. How it is done:
Caco2 cell line was provided by Prof. Jiang Xia (CUHK). A431 and HT116 cell lines were from Prof. Chiming Che (HKU). Caco2, A431 cells were cultured in DMEM supplemented with 10% FBS. HT116 cells were cultured in RPMI 1640 medium supplemented with 10% FBS. All cells were cultured in a humidified incubator at 37° C. with 5% CO2 supplemented. Cell culture medium and FBS were purchased from Gibco. Hoechst 33342 and DiI were purchased from Beyotime Biotechnology. Flow cytometry tubes were purchased from BD pharmacology.
Caco2 cells were cultured with the confluence of 60% in the 35 mm glass-bottom dish overnight. 1 mL fresh DMEM with 10% FBS was added to the dish. 1 μL 10 mM cyclic peptide (Ac-CPIEDRPMK-CONH2)-Fluorescein (cCK9′-F) (SEQ ID NO:27) in DMSO was added into the medium for 2 hours at 37° C. After two hours' incubation, the supernatant was discarded and the cells were washed with PBS for three times. The cells were replenished with PBS. Hoechst 33342 (final concentration: 2.5 μg/mL) and DiI (final concentration: 5 μM) were added into PBS for 10 min at room temperature. The supernatant was discarded. The cells were washed with PBS for three times and replenished with 3% polyaldehyde for imaging. All images were captured and processed via Leica Application Suit X at ×63 oil objective (Leica).

The test system of data set [2] is poorly differentiated colon carcinoma cells. As to conditions: Kelly, et al., Neoplasia 2003; cited from earlier work.
The mark [3] stands for this setting: 24-membered ring, OPA, PBS pH 7.4/DMSO.
Where [4] appears, read: 21-membered ring, OPA, PBS pH 7.4/DMSO.
Where [5] appears, read: 27-membered ring, OPA, PBS pH 7.4/DMSO.
The mark [6] stands for this setting: crosslinker bond, 21-membered ring, OPA, then DMAC, PBS pH 7.4/DMSO, 2 steps.
[7] abbreviates: crosslinker bond, 24-membered ring, OPA, then DMAC, PBS pH 7.4/DMSO, 2 steps.
The mark [8] stands for this setting: crosslinker bond, 27-membered ring, OPA, then DMAC, PBS pH 7.4/DMSO, 2 steps.

In data set [1] (setting [3]), Ac-ACFALPKG-CONH2 yielded a ring closure, conversion of 92.5%.
The substance Ac-AKVTMTCSAS-CONH2 had a ring closure, conversion in data set [1] (setting [3]) of 99%.
Ac-CAHNLTHAK-CONH2 displayed a ring closure, conversion in data set [1] (33-membered ring, OPA) of 98%.
The substance Ac-CDWLPK-CONH2 had a ring closure, conversion in data set [1] (setting [3]) of 89.1%.
Turning to Ac-CHHALTHAK-CONH2, the ring closure, conversion in data set [1] (33-membered ring, OPA) came to 98%.
Take Ac-ENPECILDKHVQRVM-CONH2: the ring closure, conversion in data set [1] (21-membered ring, OPA) is 98%; in data set [1] (setting [4]), 93.6%.
For Ac-GAQCAFLK-CONH2, in data set [1] (setting [4]), the ring closure, conversion turned out to be 83.3%.
In the case of Ac-KAAAAAACF-CONH2, the ring closure, conversion in data set [1] (30-membered ring, OPA) was 98%.
Regarding Ac-KAAAAACF-CONH2, in data set [1] (27-membered ring, OPA), the ring closure, conversion amounted to 98%.
For the substance Ac-KAAAAACH-CONH2, the ring closure, conversion in data set [1] (setting [5]) worked out at 98%.
Ac-KAAAACF-CONH2: the ring closure, conversion in data set [1] (24-membered ring, OPA) is 93%.
Ac-KAAAACH-CONH2 gave a ring closure, conversion in data set [1] (24-membered ring, OPA, PBS pH 7.4/DMSO, 0.53 mM) of 92%.
In turn, Ac-KAAACF-CONH2 registered a ring closure, conversion in data set [1] (21-membered ring, OPA) of 98%.
Ac-KAAACH-CONH2 gave a ring closure, conversion in data set [1] (setting [4]) of 98%.
In data set [1] (setting [5]), Ac-KGEAFQC-CONH2 showed a ring closure, conversion of 90.9%.
Ac-NYRWRCKN-CONH2 registered a ring closure, conversion in data set [1] (12-membered ring, OPA, PBS pH 7.4/DMSO) of 98%.
Turning to “Cyclo-(Ac-CPIEDRPMK-CONH2)-Fluorescein (Ac-CPIEDRPMK-NH2; linker (positions not given here) via OPA; also: fluorescein conjugate, site not given here) [cCK9′-F]”, in the data set with Caco2 cells, the “imaging overlap with cell membrane dye (DiI)” value is recorded as “overlapped very well with cell membrane dye (DiI)”.
Consider NH2-AAAAACF-CONH2, for which the ring closure, conversion in data set [1] (20-membered ring, OPA) was found to be 98%.
Take NH2-AAAACF-CONH2: the ring closure, conversion in data set [1] (17-membered ring, OPA) was 96%.
Regarding NH2-AAACF-CONH2, the ring closure, conversion in data set [1] (14-membered ring, OPA) was 98%.
In the case of “Phallodin analog (cyclo-(Dap-Ala-Hyp-Cys-(D)thr-Ala-Glu))”, the ring closure, conversion in data set [1] (15-membered ring) is 86.4%.
In data set [1] (21-membered ring, OPA), bicyclo-(CNSTKNLTFAMRSSGDYGEV) showed a ring closure, conversion of 90%.
Under setting [6], bicyclo-(CNSTKNLTFAMRSSGDYGEV)-DMAC gave a ring closure, yield after HPLC of 69%.
Take bicyclo-(CSQGTFTSDYSKYLDSRRAQ): the ring closure, conversion in data set [1] (36-membered ring, OPA) is 94%.
The substance bicyclo-(CSQGTFTSDYSKYLDSRRAQ)-DMAC returned a ring closure, yield after HPLC (crosslinker bond, 36-membered ring, OPA, then DMAC, PBS pH 7.4/DMSO, 2 steps) of 65%.
In data set [1] (15-membered ring, OPA), bicyclo-(CSSLDEPGRGGFSSESKV) displayed a ring closure, conversion of 98%.
With bicyclo-(CSSLDEPGRGGFSSESKV)-DMAC, the ring closure, yield after HPLC (crosslinker bond, 15-membered ring, OPA, then DMAC, PBS pH 7.4/DMSO, 2 steps) turned out to be 43%.
Take bicyclo-(Dap-A-Hyp-C-t-A-E)-DMAC: for the setting “crosslinker bond, 15-membered ring, 2 steps”, the ring closure, yield after HPLC stood at 65%.
For cyclo-(Ac-ACFALPKG-CONH2)-DMAC, under setting [7], the ring closure, yield after HPLC came out at 48%.
For cyclo-(Ac-AKVTMTCSAS-CONH2)-DMAC, the ring closure, yield after HPLC under setting [7] turned out to be 32%.
As for cyclo-(Ac-CDWLPK-CONH2)-DMAC, under setting [7], the ring closure, yield after HPLC turned out to be 31.9%.
cyclo-(Ac-ENPECILDKHVQRVM-CONH2)-DMAC came in with a ring closure, yield after HPLC under setting [6] of 35%.
The substance cyclo-(Ac-GAQCAFLK-CONH2)-DMAC had a ring closure, yield after HPLC under setting [6] of 38%.
In turn, cyclo-(Ac-KAAAAACH-CONH2)-DMAC came in with a ring closure, yield after HPLC under setting [8] of 52.2%.
cyclo-(Ac-KAAAACH-CONH2)-DMAC displayed a ring closure, yield after HPLC (crosslinker bond, 24-membered ring, OPA, then DMAC, PBS pH 7.4/DMSO, 0.53 mM, 2 steps) of 34%.
Under setting [6], cyclo-(Ac-KAAACH-CONH2)-DMAC yielded a ring closure, yield after HPLC of 47.3%.
Regarding cyclo-(Ac-KGEAFQC-CONH2)-DMAC, the ring closure, yield after HPLC under setting [8] was 36.6%.
Turning to cyclo-(Ac—NYRWRCKN-CONH2)-DMAC, the ring closure, yield after HPLC (crosslinker bond, 12-membered ring, OPA, then DMAC, PBS pH 7.4/DMSO, 2 steps) was 32%.
As for cyclo-(CNSTKNLTFAMRSSGDYGEV), the ring closure, conversion in data set [1] (setting [4]) came to 89.2%. Under “amide bond, 60-membered ring, NaNO2, MPAA, TCEP (NCL), 6 M Gn.HCl/0.2 M phosphate buffer, 0.37 mM”, the ring closure, yield after HPLC was 31%.
As for “cyclo-(CPIEDRPMC) (disulfide 1-9 (inferred)) [CK-9]”, in data set [2], the cell targeting entry was “specifically target poorly differentiated colon carcinoma cells”.
As for cyclo-(CSQGTFTSDYSKYLDSRRAQ), the ring closure, conversion in data set [1] (36-membered ring, OPA, PBS pH 7.4/DMSO) amounted to 71.4%. Further, the ring closure, yield after HPLC (amide bond, 60-membered ring, NaNO2, MPAA, TCEP (NCL), 6 M Gn.HCl/0.2 M phosphate buffer, 0.2 mM) is 71.7%.
Regarding cyclo-(CSSLDEPGRGGFSSESKV), the ring closure, conversion in data set [1] (15-membered ring, OPA, PBS pH 7.4/DMSO) came out at 86.9%. Also, the ring closure, yield after HPLC (amide bond, 54-membered ring, NaNO2, MPAA, TCEP (NCL), 6 M Gn.HCl/0.2 M phosphate buffer, 0.14 mM) is 68.8%.
